Source: patent US20240300886A1, “ARYLCYCLOHEXYLAMINE DERIVATIVES AND THEIR USE IN THE TREATMENT OF PSYCHIATRIC DISORDERS” (GILGAMESH PHARMACEUTICALS, INC., priority 2021, published 2024)
Read-outs that look alike come from different tables or passages of the source.

How the values were obtained:
[1] = Metabolic stability in mouse liver microsomes (MLM); format: in vitro ADME, CD-1 mice; conditions: male, CD-1, mouse, pooled mouse liver microsomes, pH 7.4, 1 μM compound, 0.50 mg protein/mL, NADPH
Experimental: (§1) MLM Stability. Pooled MLM from male CD-1 mice (XenoTech M1000) were used. Microsomal incubations were carried out in multi-well plates. Liver microsomal incubation medium consisted of PBS (100 mM, pH 7.4), MgCl2 (1 mM), and NADPH (1 mM), with 0.50 mg of liver microsomal protein per mL. Control incubations were performed by replacing the NADPH-cofactor system with PBS. Test compounds (1 μM, final solvent concentration 1.0%) were incubated with microsomes at 37° C. with constant shaking. Six time points over 60 minutes were analyzed, with 60 μL aliquots of the reaction mixture being drawn at each time point. The reaction aliquots were stopped by adding 180 μL of cold (4° C.) acetonitrile containing 200 ng/mL tolbutamide and 200 ng/mL labetalol as internal standards (IS), followed by shaking for 10 minutes, and then protein sedimentation by centrifugation at 4,000 rpm for 20 minutes at 4° C. Supernatant samples (80 μL) were diluted with water (240 μL) and analyzed for parent compound remaining using a fit-for-purpose liquid chromatography-tandem mass spectrometry (LC-MS/MS) method.
Data Analysis. The elimination constant (kel), half-life (t1/2) and intrinsic clearance (Clint) were determined in a plot of ln(AUC) versus […], using linear regression analysis.

[2] = Metabolic stability in rat liver microsomes (RLM); format: in vitro ADME, Sprague Dawley rats
Experimental: as §1, with “RLM” for “MLM”, “Sprague Dawley rats” for “CD-1 mice”, “R1000)” for “M1000)”
(§2) Data Analysis. The elimination constant (kel), half-life (t1/2) and intrinsic clearance (Clint) were determined in a plot of […] versus time, using linear regression analysis.

[3] = Metabolic stability in human liver microsomes (HLM); format: in vitro ADME; conditions: 0.50 mg protein/mL, NADPH; for Clint: 1 μM compound; for half-life at 1 μM: both sexes, human, pooled human liver microsomes, pH 7.4, 1 μM compound
Experimental: HLM Stability. Pooled HLM from adult male and female donors (Corning 452117) were used. Microsomal incubations were carried out in multi-well plates. Liver microsomal incubation medium consisted of PBS (100 mM, pH 7.4), MgCl2 (1 mM), and NADPH ([…]), with 0.50 mg of liver microsomal protein per mL. Control incubations were performed by replacing the NADPH-cofactor system with PBS. Test compounds (1 μM, final solvent concentration 1.0%) were incubated with microsomes at 37° C. with constant shaking, Six time points over 60 minutes were analyzed, with 60 μL aliquots of the reaction mixture being drawn at each time point. The reaction aliquots were stopped by adding 180 μL of cold (4° C.) acetonitrile containing 200 ng/mL tolbutamide and 200 ng/mL labetalol as internal standards (IS), followed by shaking for 10 minutes, and then protein sedimentation by centrifugation at 4,000 rpm for 20 minutes at 4° C. Supernatant samples (80 μL) were diluted with water (240 μL) and analyzed for parent compound remaining using a fit-for-purpose liquid chromatography-tandem mass spectrometry (LC-MS/MS) method.
as §2

[4] = Comparative metabolism/PK of 2R and deuterated 7R in rats after oral administration; format: in vivo, Sprague Dawley rats; conditions: for concentration at 0.083 h / concentration at 0.25 h / concentration at 0.5 h / concentration at 1 h / concentration at 2 h / concentration at 4 h: oral; for concentration at 0.083 h: 0.083 h after 10 mg/kg po of 2R or 7R; for concentration at 0.25 h: 0.25 h after 10 mg/kg po of 2R or 7R; for concentration at 0.5 h: 0.5 h after 10 mg/kg po of 2R or 7R; for concentration at 1 h: 1 h after 10 mg/kg po of 2R or 7R; for concentration at 2 h: 2 h after 10 mg/kg po of 2R or 7R; for concentration at 4 h: 4 h after 10 mg/kg po of 2R or 7R
Experimental: Animals. Male Sprague Dawley rats were used in these studies. Animals were randomly assigned to treatment groups and were fasted for 4 h before dosing.
Drugs. Test compounds 2R and 7R were dissolved in a vehicle consisting of normal saline. They were then administered orally (po) at a dose of 10 mg/kg (calculated based on freebase), and at a volume of 5 mL/kg body weight.
Sample Collection and Bioanalysis. Blood samples (approximately 60 μL) were collected under light isoflurane anesthesia (Surgivet®) from the retro orbital plexus at 0.08, 0.25, 0.5, 1, 2, 4, 8, and 24 h (4 animals per time point). Immediately after blood collection, plasma was harvested by centrifugation at 4,000 rpm for 10 min at 4° C. and samples were stored at −70±10° C. until bioanalysis. Following blood collection, animals were immediately sacrificed, the abdominal vena-cava was cut open, and the whole body was perfused from the heart using 10 mL of normal saline, and brain samples were collected from all animals. After isolation, brain samples were rinsed three times in ice-cold normal saline (for 5-10 seconds/rinse using ˜5-10 mL normal saline in disposable petri dish for each rinse) and dried on blotting paper. Brain samples were homogenized using ice-cold phosphate-buffered saline (pH 7.4) Total homogenate volume was three times the tissue weight. All homogenates were stored at −70±10° C. until bioanalysis. For bioanalysis, 25 μL aliquots of plasma/brain study samples or spiked plasma/brain calibration standards were added to individual pre-labeled micro-centrifuge tubes followed by 100 μL of an internal standard solution (glipizide, 500 ng/mL in acetonitrile) except for blanks, where 100 μL of acetonitrile was added. Samples were vortexed for 5 minutes and then centrifuged for 10 minutes at 4,000 rpm at 4° C. Following centrifugation, 100 μL of each clear supernatant was transferred to a 96 well plate and analyzed with a fit-for-purpose LC-MS/MS method, with authentic samples of each analyte used for calibration and identification. Concentrations of parent compound (2R or 7R) and metabolite 1R were determined in all samples.
Data Analysis. Pharmacokinetic parameters were estimated using the non-compartmental analysis tool of Phoenix® WinNonlin software (Ver 8.0).

[5] = male, Sprague Dawley, rat, pooled rat liver microsomes, pH 7.4, 1 μM compound, 0.50 mg protein/mL, NADPH
[6] = male, Sprague Dawley, rat, brain, 10 mg/kg, rat brain, read-out: Mean brain concentration
[7] = male, Sprague Dawley, rat, plasma, 10 mg/kg, rat plasma, read-out: Mean plasma concentration
[8] = rat brain after 10 mg/kg po of 2R or 7R, parent or metabolite 1R as labelled

NC1(c2ccc(F)cc2)CCCCC1=O (racemic) [Compound 1, 2-amino-2-(4-fluorophenyl)cyclohexan-1-one]
half-life at 1 μM [1]: > 2.42 h | microsomal CLint at 1 μM [1]: < 9.6 µL/min/mg | metabolic stability in RLM (in words) [2]: much greater stability | half-life at 1 μM [2, 5]: > 2.42 h | microsomal CLint at 1 μM [2, 5]: < 9.6 µL/min/mg | Clint [3]: <9.6 μL/min/m | half-life at 1 μM [3]: > 2.42 h

CNC1(c2ccc(F)cc2)CCCCC1=O (racemic) [Compound 2]
half-life at 1 μM [1]: 1.68 h | metabolic stability in RLM (in words) [2]: much greater stability | half-life at 1 μM [2, 5]: 1.18 h | Clint [3]: <9.6 μL/min/m | half-life at 1 μM [3]: > 2.42 h

NC1(c2cccc(F)c2)CCCCC1=O (racemic) [Compound 3, 2-amino-2-(3-fluorophenyl)cyclohexan-1-one]
metabolic stability in RLM (in words) [2]: much greater stability

[2H]C([2H])([2H])N[C@@]1(c2ccc(F)cc2)CCCCC1=O [Compound 7R]
concentration at 0.083 h [4, 6]: 98 ng/g | concentration at 0.25 h [4, 6]: 2090 ng/g | concentration at 0.5 h [4, 6]: 2200 ng/g | concentration at 1 h [4, 6]: 1770 ng/g | concentration at 2 h [4, 6]: 1420 ng/g | concentration at 4 h [4, 6]: 236 ng/g | half-life ([4]; male, Sprague Dawley, rat, brain, po, 10 mg/kg, rat brain after 10 mg/kg po of 2R or 7R, parent or metabolite 1R as labelled, read-out: t1/2 (brain)): 1.12 h | concentration at 0.083 h [4, 7]: 65 ng/mL | concentration at 0.25 h [4, 7]: 502 ng/mL | concentration at 0.5 h [4, 7]: 799 ng/mL | concentration at 1 h [4, 7]: 564 ng/mL | concentration at 2 h [4, 7]: 396 ng/mL | concentration at 4 h [4, 7]: 68 ng/mL | Cmax ([4]; male, Sprague Dawley, rat, plasma, po, 10 mg/kg, rat plasma after 10 mg/kg po of 2R or 7R, parent or metabolite 1R as labelled): 799 ng/mL | AUC(0-t) ([4]; male, Sprague Dawley, rat, plasma, po, 10 mg/kg, rat plasma after 10 mg/kg po of 2R or 7R, parent or metabolite 1R as labelled, read-out: AUC0-last (plasma) (converted)): 1650 ng·h/mL | half-life ([4]; male, Sprague Dawley, rat, plasma, po, 10 mg/kg, rat plasma after 10 mg/kg po of 2R or 7R, parent or metabolite 1R as labelled, read-out: t1/2 (plasma)): 1.08 h | AUC0-last (brain) [4, 8]: 330347 ng·min/g | Cmax (brain) [4, 8]: 2197 ng/g | exposure (AUC) in plasma and brain compared to non-deuterated 2R ([4]; rats, 10 mg/kg po): greater exposure

Cc1ccc(C2(N)CCCCC2=O)cc1 (centres unmarked) [Compound 10, 2-amino-2-(p-tolyl)cyclohexan-1-one]
half-life at 1 μM [2, 5]: 0.06 h

CNC1(c2ccc(C)cc2)CCCCC1=O (centres unmarked) [Compound 11, 2-(methylamino)-2-(p-tolyl)cyclohexan-1-one]
half-life at 1 μM [2, 5]: 0.055 h

Cc1cccc(C2(N)CCCCC2=O)c1 (centres unmarked) [Compound 12, 2-amino-2-(m-tolyl)cyclohexan-1-one]
half-life at 1 μM [2, 5]: 0.12 h
